In patent US12410160B2 (Gilead Sciences, Inc., priority 2021, dated 2025) one finds IC50 and EC50 data, which are given here for 25 molecules.

Read-outs that look alike come from different tables or passages of the source.

One experiment concerns the target human KHK-C (Homo sapiens (Human), UniProt P50053). The experiment can be described thus: KHK Biochemical Assay (IC50), ADP-Glo, KHK-C. The settings on record: average of at least two separate assays. The method in brief:
(§1)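 His-tagged enzyme expressed in BL21 (DE3), Ni-NTA purified. Compounds, serially diluted 1:3 in DMSO, pre-incubated 30 min with enzyme in 50 mM Hepes pH 7.4, 140 mM KCl, 5 mM MgCl2, 0.01% Triton-X, then ATP and fructose added; 4 h at room temperature. ADP formation read by ADP-Glo luminescence.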
Background: ADP-Glo turns the ADP formed in a reaction into a luminescent signal.

Another experiment addresses human KHK-A (Homo sapiens (Human), UniProt P50053). The experiment can be described thus: KHK Biochemical Assay (IC50), ADP-Glo, KHK-A. The note with it: average of at least two separate assays. The method in brief: as §1
Experiment [1] deals with KHK-C expressed in NRK-52E cells (Homo sapiens (Human), UniProt P50053). The experiment can be described thus: KHK-C Cell-based Assay (EC50), NRK CTG, fructose-mediated ATP-depletion.
Chain of KHK-C expressed in NRK-52E cells (P50053 whole entry): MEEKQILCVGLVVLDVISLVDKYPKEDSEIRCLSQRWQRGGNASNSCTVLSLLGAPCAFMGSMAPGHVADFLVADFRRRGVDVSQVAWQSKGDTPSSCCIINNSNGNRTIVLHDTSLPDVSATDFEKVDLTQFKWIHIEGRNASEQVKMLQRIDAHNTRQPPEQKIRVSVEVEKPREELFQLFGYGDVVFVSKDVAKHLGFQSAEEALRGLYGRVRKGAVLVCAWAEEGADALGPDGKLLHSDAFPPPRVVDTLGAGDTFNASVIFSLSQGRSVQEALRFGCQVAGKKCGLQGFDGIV

Chain of human KHK-C (P50053 whole entry): as above
Chain of human KHK-A (P50053 other isoform, or with tags, fused parts or gaps): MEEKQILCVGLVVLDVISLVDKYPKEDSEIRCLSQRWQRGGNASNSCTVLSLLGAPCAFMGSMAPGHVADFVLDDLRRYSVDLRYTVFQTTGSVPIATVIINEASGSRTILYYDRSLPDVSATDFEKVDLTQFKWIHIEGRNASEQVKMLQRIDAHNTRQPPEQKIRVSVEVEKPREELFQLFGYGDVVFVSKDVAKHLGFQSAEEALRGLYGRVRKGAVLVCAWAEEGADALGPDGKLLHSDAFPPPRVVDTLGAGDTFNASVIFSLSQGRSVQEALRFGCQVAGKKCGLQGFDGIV

In the case of `C[C@H]1CCN1c1nc2c(c(-c3ccc4c(c3)[C@]3(C[C@@H]3C(N)=O)C(=O)N4)n1)CCC2` (mixture of isomers) [Example 413, rac-(1R,2S)-5′-(2-((S)-2-methylazetidin-1-yl)-6,7-dihydro-5H-cyclopenta[d]pyrimidin-4-yl)-2′-oxospiro[cyclopropane-1,3′-indoline]-2-carboxamide], the IC50 was found to be 74.4 nM on human KHK-C and 65.4 nM at human KHK-A. The molecule further registered an EC50 in experiment [1] of 750 nM.
With `COC(=O)[C@@H]1C[C@@]12C(=O)Nc1ccc(-c3nc(N4CC[C@@H]4C)nc4c3CCC4)cc12` (racemic) [Example 406, rac-methyl (1R,2R)-5′-(2-((S)-2-methylazetidin-1-yl)-6,7-dihydro-5H-cyclopenta[d]pyrimidin-4-yl)-2′-oxospiro[cyclopropane-1,3′-indoline]-2-carboxylate], the half-inhibitory concentration (IC50) on human KHK-C turned out to be 1040 nM; against human KHK-A, 841 nM. Besides, the EC50 in experiment [1] stood at 397 nM.
On to `COC(=O)[C@H]1C[C@@]12C(=O)Nc1ccc(-c3nc(N4CC[C@@H]4C)nc4c3CCC4)cc12` (racemic) [Example 407, rac-methyl (1R,2S)-5′-(2-((S)-2-methylazetidin-1-yl)-6,7-dihydro-5H-cyclopenta[d]pyrimidin-4-yl)-2′-oxospiro[cyclopropane-1,3′-indoline]-2-carboxylate], for which the IC50 against human KHK-C was determined as 229 nM; against human KHK-A, 235 nM. The molecule also showed an EC50 in experiment [1] of 506 nM.
The like results for `C[C@H]1CCN1c1nc2c(c(-c3ccc4c(c3)[C@]3(C[C@H]3C(=O)O)C(=O)N4)n1)CCC2` (racemic) [Example 408, rac-(1R,2R)-5′-(24(8)-2-methylazetidin-1-yl)-6,7-dihydro-5H-cyclopenta[d]pyrimidin-4-yl)-2′-oxospiro[cyclopropane-1,3′-indoline]-2-carboxylic acid] were, in that order, 100 nM, 158 nM and more than 5000 nM.
The like results for `C[C@H]1CCN1c1nc2c(c(-c3ccc4c(c3)[C@]3(C[C@@H]3C(=O)O)C(=O)N4)n1)CCC2` (racemic) [Example 409, rac-(1R,28)-5′-(24(8)-2-methylazetidin-1-yl)-6,7-dihydro-5H-cyclopenta[d]pyrimidin-4-yl)-2′-oxospiro[cyclopropane-1,3′-indoline]-2-carboxylic acid] were, in that order, 34.3 nM, 41 nM and more than 5000 nM.
Take `C[C@H]1CCN1c1nc2c(c(-c3ccc4c(c3)C[C@@H]3[C@@H](C(N)=O)[C@H]43)n1)CCC2` (relative stereo) [Example 137, (1R,1aR*,6aS*)-4-(2-((S)-2-methylazetidin-1-yl)-6,7-dihydro-5H-cyclopenta[d]pyrimidin-4-yl)-1,1a,6,6a-tetrahydrocyclopropa[a]indene-1-carboxamide]: the values for the IC50 at human KHK-C (ADP-Glo) and on human KHK-A (ADP-Glo) were 90.3 nM and 216 nM, respectively. In experiment [1], this molecule displayed an EC50 of 100 nM.
`C[C@H]1CCN1c1nc2c(c(-c3ccc4c(c3)C[C@@H]3[C@H](C(N)=O)[C@H]43)n1)CCC2` (relative stereo) [Example 138, (1S,1aR*,6aS*)-4-(2-((S)-2-methylazetidin-1-yl)-6,7-dihydro-5H-cyclopenta[d]pyrimidin-4-yl)-1,1a,6,6a-tetrahydrocyclopropa[a]indene-1-carboxamide]: the values for the IC50 on human KHK-C (ADP-Glo) and against human KHK-A (ADP-Glo) were 220 nM and 294 nM, respectively. This molecule showed an EC50 in experiment [1] of 1800 nM.
As for `CC(=O)N1C[C@H](C(N)=O)[C@@H](c2cccc(-c3nc(N4CC[C@@H]4C)nc4c3CCC4)c2)C1` (relative stereo) [Example 146, (3R*,4S*)-1-acetyl-4-(3-(2-((S)-2-methylazetidin-1-yl)-6,7-dihydro-5H-cyclopenta[d]pyrimidin-4-yl)phenyl)pyrrolidine-3-carboxamide], the IC50 was found to be 116 nM at human KHK-C (ADP-Glo) and 118 nM at human KHK-A (ADP-Glo). The EC50 in experiment [1] worked out at 423 nM.
The like results for `C[C@H]1[C@H](C(N)=O)CN1c1nc2c(c(-c3ccc(C(N)=O)cc3)n1)CCC2` (relative stereo) [Example 266, (rac)-(2S*,3R*)-1-(4-(4-carbamoylphenyl)-6,7-dihydro-5H-cyclopenta[d]pyrimidin-2-yl)-2-methylazetidine-3-carboxamide] were, in that order, more than 5000 nM, more than 5000 nM and more than 5000 nM.
Turning to `C[C@H]1CCN1c1nc2c(c(-c3cccc([C@H]4C[C@@H]4c4nn[nH]n4)c3)n1)CCC2` (relative stereo) [Example 270, 4-(3-((1S*,2S*)-2-(2H-tetrazol-5-yl)cyclopropyl)phenyl)-2-((S)-2-methylazetidin-1-yl)-6,7-dihydro-5H-cyclopenta[d]pyrimidine], the IC50 against human KHK-C (ADP-Glo) was 44.7 nM; against human KHK-A (ADP-Glo), 62.3 nM. For the same molecule, a half-maximal effect in experiment [1] (EC50) was put at 2140 nM.
On to `C[C@H]1CCN1c1nc2c(c(-c3cccc([C@@H]4C[C@H]4C(=O)O)c3)n1)CCC2` (single isomer, unassigned) [Example 90], for which the results for the IC50 at human KHK-C (ADP-Glo) and at human KHK-A (ADP-Glo) were 11.2 nM and 8.9 nM, respectively. Further, in experiment [1], the EC50 was 121 nM.
Take `C[C@H]1[C@H](O)CN1c1nc(-c2ccc(OC3CC3)c([S@@](C)(=N)=O)c2)c2c(n1)C(F)(F)CC2` (single isomer, unassigned) [Example 542]: the results for the IC50 against human KHK-C and against human KHK-A were 0.6 nM and 0.5 nM, respectively. Besides, the midpoint of the response in experiment [1], the EC50, lay at 5.7 nM.
Regarding `C[C@H]1[C@H](O)CN1c1nc(-c2ccc3c(c2)OC[C@]32NC(=O)OC2(C)C)c2c(n1)C(F)(F)CC2` (single isomer, unassigned) [Example 566], the IC50 is 0.8 nM against human KHK-C and 16.3 nM at human KHK-A. In addition, in experiment [1], the EC50 turned out to be 6.7 nM.
On to `C[C@H]1[C@H](O)CN1c1nc(-c2ccc3c(c2)CC[C@@]32CCC(=O)N2)c2c(n1)C(F)(F)CC2` (single isomer, unassigned) [Example 637], for which the IC50 is 22.1 nM on human KHK-C and 35.1 nM against human KHK-A. The same molecule gave an EC50 in experiment [1] of 161 nM.
The matching figures for `C[C@H]1[C@H](O)CN1c1nc(-c2ccc3c(c2)CC[C@]32CCC(=O)N2)c2c(n1)C(F)(F)CC2` (single isomer, unassigned) [Example 638]: 0.3 nM, 8.5 nM and 6.1 nM.
With `C[C@H]1[C@H](O)CN1c1nc(-c2ccc3c(c2)COC[C@@]32CCC(=O)N2)c2c(n1)C(F)(F)CC2` (single isomer, unassigned) [Example 640], the IC50 came to 29.2 nM on human KHK-C and 38.8 nM against human KHK-A. The same molecule showed an EC50 in experiment [1] of 280 nM.
Regarding `C[C@H]1[C@H](O)CN1c1nc(-c2ccc3c(c2)COC[C@]32CCC(=O)N2)c2c(n1)C(F)(F)CC2` (single isomer, unassigned) [Example 641], the IC50 against human KHK-C turned out to be 0.9 nM; against human KHK-A it was 14.5 nM. For the same molecule, the EC50 in experiment [1] (read-out: NRK CTG EC50, NRK-52E cells, Cell-Titer Glo, 25 mM fructose) was 20.3 nM.
For `C[C@H]1CCN1c1nc(-c2cccc(N=[S@@](C)(N)=O)c2)c2c(n1)C(F)(F)CC2` (single isomer, unassigned) [Example 691], the IC50 against human KHK-C was 7.4 nM; against human KHK-A it was 7.5 nM. In experiment [1], the EC50 stood at 50.4 nM.
Turning to `C[C@H]1CCN1c1nc(-c2cccc(N=[S@](C)(N)=O)c2)c2c(n1)C(F)(F)CC2` (single isomer, unassigned) [Example 692], the IC50 at human KHK-C came to 8.3 nM; at human KHK-A, 6.9 nM. The molecule further showed an EC50 in experiment [1] of 44.9 nM.
For `C[C@H]1[C@H](O)CN1c1nc(-c2ccc3c(c2)OC[C@]32CN(C)C(=O)N2)c2c(n1)C(F)(F)CC2` (single isomer, unassigned) [Example 701], the IC50 stood at 20.5 nM at human KHK-C and 31.8 nM against human KHK-A. In experiment [1], this molecule gave an EC50 of 108 nM.
The matching figures for `C[C@H]1[C@H](O)CN1c1nc(-c2ccc3c(c2)OC[C@@]32CN(C)C(=O)N2)c2c(n1)C(F)(F)CC2` (single isomer, unassigned) [Example 702]: 0.2 nM, 11.7 nM and 3.9 nM.
On to `C[C@H]1CCN1c1nc2c(c(-c3ccc(C(O)C(F)(F)F)cc3)n1)CCC2` (stereo in doubt) [Example 265, 2,2,2-trifluoro-1-[4-[2-[(2S)-2-methylazetidin-1-yl]-6,7-dihydro-5H-cyclopenta[d]pyrimidin-4-yl]phenyl]ethanol], for which the IC50 is 1630 nM on human KHK-C (ADP-Glo) and 2100 nM against human KHK-A (ADP-Glo). In experiment [1], this molecule came in with an EC50 of 700 nM.
With `C[C@H]1CCN1c1nc2c(c(-c3ccc(C(N)C(F)(F)F)cc3)n1)CCC2` (stereo in doubt) [Example 269, 2,2,2-trifluoro-1-[4-[2-[(2S)-2-methylazetidin-1-yl]-6,7-dihydro-5H-cyclopenta[d]pyrimidin-4-yl]phenyl]ethanamine], the IC50 against human KHK-C (ADP-Glo) and against human KHK-A (ADP-Glo) was more than 5000 nM in each case. In experiment [1], this molecule registered an EC50 of more than 5000 nM.
Regarding `C[C@H]1CCN1c1nc2c(c(-c3cccc([C@H]4C[C@@H]4C#N)c3)n1)CCC2` (stereo in doubt) [Example 454, trans-2-[3-[2-[(2S)-2-methylazetidin-1-yl]-6,7-dihydro-5H-cyclopenta[d]pyrimidin-4-yl]phenyl]cyclopropanecarbonitrile], the IC50 was found to be 489 nM on human KHK-C and 459 nM against human KHK-A. In experiment [1], this molecule showed an EC50 of 546 nM.
The matching figures for `C[C@H]1CCN1c1nc2c(c(-c3cccc([C@H]4C[C@@H]4C(N)=O)c3)n1)CCC2` (stereo in doubt) [Example 456, trans-2-[3-[2-[(2S)-2-methylazetidin-1-yl]-6,7-dihydro-5H-cyclopenta[d]pyrimidin-4-yl]phenyl]cyclopropanecarboxamide]: 21.8 nM, 44.8 nM and 51.8 nM.

As usually defined, the IC50 is the point on the concentration scale where inhibition reaches its midpoint. A word on the EC50: it is the concentration that produces a half-maximal response.
